Experimental data as given in ChEMBL document CHEMBL1275550, “In vitro activity of doripenem, a carbapenem for the treatment of challenging infections caused by gram-negative bacteria, against recent clinical isolates from the United States” (2008).
Values after ≈ are worked out from the molar mass of the structure shown.

Key:
Assay type in all cases: functional
[1] = tested on: Staphylococcus; experiment: Antimicrobial activity against methicillin-resistant coagulase-negative Staphylococcus by broth microdilution method
[2] = tested on: Serratia marcescens; experiment: Antimicrobial activity against Ceftazidime non-susceptible Serratia marcescens assessed as resistant isolate by broth microdilution method
[3] = tested on: Citrobacter; experiment: Antimicrobial activity against Citrobacter with nonderepressed AmpC beta-lactamsae assessed as resistant isolate by broth microdilution method
[4] = tested on: Pseudomonas aeruginosa; experiment: Antimicrobial activity against imipenem non-susceptible Pseudomonas aeruginosa assessed as resistant isolate by broth microdilution method
[5] = tested on: Escherichia coli; experiment: Antimicrobial activity against Non-ESBL Escherichia coli assessed as resistant isolate by broth microdilution method
[6] = tested on: Acinetobacter; experiment: Antimicrobial activity against imipenem susceptible Acinetobacter assessed as resistant isolate by broth microdilution method
[7] = tested on: Klebsiella pneumoniae; experiment: Antimicrobial activity against Non-ESBL Klebsiella pneumoniae assessed as resistant isolate by broth microdilution method
[8] = tested on: Staphylococcus; experiment: Antimicrobial activity against methicillin-susceptible coagulase-negative Staphylococcus assessed as susceptible isolate by broth microdilution method
[9] = tested on: Staphylococcus aureus; experiment: Antimicrobial activity against methicillin-susceptible Staphylococcus aureus assessed as susceptible isolate by broth microdilution method
[10] = tested on: Proteus mirabilis; experiment: Antimicrobial activity against Proteus mirabilis assessed as resistant isolate by broth microdilution method
[11] = tested on: Enterobacteriaceae; experiment: Antimicrobial activity against Enterobacteriaceae assessed as resistant isolate by broth microdilution method
[12] = tested on: Streptococcus pneumoniae; experiment: Antimicrobial activity against penicillin-intermediate Streptococcus pneumoniae assessed as intermediate isolate by broth microdilution method
[13] = tested on: Streptococcus pneumoniae; experiment: Antimicrobial activity against […] assessed as susceptible isolate by broth microdilution method
[14] = tested on: Pseudomonas aeruginosa; experiment: Antimicrobial activity against Pseudomonas aeruginosa assessed as resistant isolate by broth microdilution method
[15] = tested on: Citrobacter; experiment: Antimicrobial activity against Citrobacter assessed as intermediate isolate by broth microdilution method
[16] = tested on: Klebsiella pneumoniae; experiment: Antimicrobial activity against Klebsiella pneumoniae assessed as intermediate isolate by broth microdilution method
[17] = tested on: Pseudomonas aeruginosa; experiment: Antimicrobial activity against Pseudomonas aeruginosa assessed as intermediate isolate by broth microdilution method
[18] = tested on: Enterobacteriaceae; experiment: Antimicrobial activity against Enterobacteriaceae assessed as intermediate isolate by broth microdilution method
[19] = tested on: Klebsiella pneumoniae; experiment: Antimicrobial activity against Klebsiella pneumoniae assessed as resistant isolate by broth microdilution method
[20] = tested on: Citrobacter; experiment: Antimicrobial activity against Citrobacter with derepressed AmpC beta-lactamsae assessed as intermediate isolate by broth microdilution method in presence of Tazobactam
[21] = tested on: Serratia marcescens; experiment: Antimicrobial activity against Ceftazidime susceptible Serratia marcescens assessed as resistant isolate by broth microdilution method in presence of tazobactam
[22] = tested on: Serratia marcescens; experiment: Antimicrobial activity against ceftazidime non-susceptible Serratia marcescens assessed as resistant isolate by broth microdilution method in presence of Tazobactam
[23] = tested on: Pseudomonas aeruginosa; experiment: Antimicrobial activity against Pseudomonas aeruginosa isolated from ICU patient assessed as intermediate isolate by broth microdilution method in presence of Tazobactam
[24] = tested on: Enterobacter cloacae; experiment: Antimicrobial activity against Enterobacter cloacae with derepressed AmpC beta-lactamsae assessed as resistant isolate by broth microdilution method in presence of Tazobactam
[25] = tested on: Klebsiella pneumoniae; experiment: Antimicrobial activity against ESBL producing Klebsiella pneumoniae assessed as susceptible isolate by broth microdilution method in presence of Tazobactam
[26] = tested on: Acinetobacter; experiment: Antimicrobial activity against imipenem non-susceptible Acinetobacter assessed as resistant isolate by broth microdilution method in presence of Tazobactam
[27] = tested on: Serratia marcescens; experiment: Antimicrobial activity against Ceftazidime non-susceptible Serratia marcescens by broth microdilution method in presence of tazobactam
[28] = tested on: Pseudomonas aeruginosa; experiment: Antimicrobial activity against imipenem susceptible Pseudomonas aeruginosa by broth microdilution method in presence of Tazobactam
[29] = tested on: Pseudomonas aeruginosa; experiment: Antimicrobial activity against Ceftazidime non-susceptible Pseudomonas aeruginosa assessed as resistant isolate by broth microdilution method in presence of tazobactam
[30] = tested on: Escherichia coli; experiment: Antimicrobial activity against ESBL producing Escherichia coli by broth microdilution method in presence of Tazobactam
[31] = tested on: Citrobacter; experiment: Antimicrobial activity against Citrobacter with derepressed AmpC beta-lactamsae assessed as resistant isolate by broth microdilution method in presence of Tazobactam
[32] = tested on: Acinetobacter; experiment: Antimicrobial activity against imipenem non-susceptible Acinetobacter assessed as intermediate isolate by broth microdilution method in presence of Tazobactam
[33] = tested on: Enterobacter cloacae; experiment: Antimicrobial activity against Enterobacter cloacae with derepressed AmpC beta-lactamsae by broth microdilution method in presence of Tazobactam
[34] = tested on: Escherichia coli; experiment: Antimicrobial activity against Non-ESBL Escherichia coli by broth microdilution method in presence of Tazobactam
[35] = tested on: Enterobacter cloacae; experiment: Antimicrobial activity against Enterobacter cloacae with nonderepressed AmpC beta-lactamsae assessed as susceptible isolate by broth microdilution method in presence of Tazobactam
[36] = tested on: Acinetobacter; experiment: Antimicrobial activity against imipenem susceptible Acinetobacter by broth microdilution method in presence of Tazobactam
[37] = tested on: Pseudomonas aeruginosa; experiment: Antimicrobial activity against ceftazidime non-susceptible Pseudomonas aeruginosa by broth microdilution method in presence of Tazobactam
[38] = tested on: Enterobacteriaceae; experiment: Antimicrobial activity against ceftazidime-susceptible Enterobacteriaceae by broth microdilution method in presence of Tazobactam
[39] = tested on: Acinetobacter; experiment: Antimicrobial activity against imipenem susceptible Acinetobacter assessed as intermediate isolate by broth microdilution method in presence of Tazobactam
[40] = tested on: Enterobacter cloacae; experiment: Antimicrobial activity against Enterobacter cloacae with derepressed AmpC beta-lactamsae assessed as susceptible isolate by broth microdilution method in presence of Tazobactam
[41] = tested on: Enterobacteriaceae; experiment: Antimicrobial activity against ceftazidime non-susceptible Enterobacteriaceae by broth microdilution method in presence of Tazobactam
[42] = tested on: Acinetobacter; experiment: Antimicrobial activity against imipenem non-susceptible Acinetobacter by broth microdilution method in presence of Tazobactam
[43] = tested on: Citrobacter; experiment: Antimicrobial activity against Citrobacter with derepressed AmpC beta-lactamsae by broth microdilution method in presence of Tazobactam
[44] = tested on: Serratia marcescens; experiment: Antimicrobial activity against Ceftazidime susceptible Serratia marcescens assessed as intermediate isolate by broth microdilution method in presence of tazobactam
[45] = tested on: Enterobacteriaceae; experiment: Antimicrobial activity against ceftazidime non-susceptible Enterobacteriaceae assessed as susceptible isolate by broth microdilution method in presence of Tazobactam
[46] = tested on: Enterobacteriaceae; experiment: Antimicrobial activity against Ceftazidime non-susceptible Enterobacteriaceae assessed as intermediate isolate by broth microdilution method in presence of tazobactam
[47] = tested on: Serratia marcescens; experiment: Antimicrobial activity against ceftazidime non-susceptible Serratia marcescens assessed as susceptible isolate by broth microdilution method in presence of Tazobactam
[48] = tested on: Serratia marcescens; experiment: Antimicrobial activity against ceftazidime susceptible Serratia marcescens assessed as susceptible isolate by broth microdilution method in presence of Tazobactam
[49] = tested on: Pseudomonas aeruginosa; experiment: Antimicrobial activity against imipenem non-susceptible Pseudomonas aeruginosa assessed as resistant isolate by broth microdilution method in presence of Tazobactam
[50] = tested on: Pseudomonas aeruginosa; experiment: Antimicrobial activity against ceftazidime susceptible Pseudomonas aeruginosa assessed as susceptible isolate by broth microdilution method in presence of Tazobactam

SMILES: C[C@@H](O)[C@H]1C(=O)N2C(C(=O)O)=C(S[C@@H]3CN[C@H](CNS(N)(=O)=O)C3)[C@H](C)[C@H]12 [DORIPENEM]
- MIC50 [1]: 1 µg/mL (≈ 2.38 µM)
- MIC90 [1]: 8 µg/mL (≈ 19 µM)

SMILES: CC(C)(O/N=C(\C(=O)N[C@@H]1C(=O)N2C(C(=O)[O-])=C(C[n+]3ccccc3)CS[C@H]12)c1csc(N)n1)C(=O)O [CEFTAZIDIME]
- Activity [2]: 100%
- Activity [3]: 1.3%
- Activity [4]: 18.4%
- Activity [5]: 0.9%
- Activity [6]: 27.7%
- Activity [7]: 0.6%

SMILES: C[C@@H](O)[C@H]1C(=O)N2C(C(=O)O)=C(SCCNC=N)C[C@H]12 [IMIPENEM ANHYDROUS]
- Activity [8]: 99.4%
- Activity [9]: 100%
- Activity [10]: 0.2%
- Activity [3]: 0.2%
- Activity [11]: 0.1%
- Activity [12]: 84.4%
- MIC50 [1]: 0.25 µg/mL (≈ 0.835 µM)
- MIC90 [1]: 16 µg/mL (≈ 53.4 µM)
- Activity [13]: 99.9%
- Activity [14]: 16%
- Activity [15]: 0%
- Activity [16]: 0.2%
- Activity [17]: 7.7%
- Activity [18]: 0.4%

SMILES: C[C@@H](O)[C@H]1C(=O)N2C(C(=O)O)=C(S[C@@H]3CN[C@H](C(=O)N(C)C)C3)[C@H](C)[C@H]12 [MEROPENEM]
- Activity [8]: 99.4%
- Activity [9]: 100%
- Activity [19]: 0.3%
- Activity [4]: 40.6%
- Activity [11]: 0.1%
- Activity [12]: 83.9%
- Activity [6]: 0.4%
- Activity [7]: 0.2%
- Activity [13]: 100%
- Activity [14]: 10.2%
- Activity [15]: 0%
- Activity [16]: 0%
- Activity [17]: 4.6%
- Activity [18]: 0%

SMILES: CCN1CCN(C(=O)N[C@@H](C(=O)N[C@@H]2C(=O)N3[C@@H]2SC(C)(C)[C@@H]3C(=O)O)c2ccccc2)C(=O)C1=O [PIPERACILLIN]
- Activity [20]: 29.1%
- Activity [21]: 1.9%
- Activity [22]: 50%
- Activity [23]: 0%
- Activity [24]: 82.5%
- Activity [25]: 11.4%
- Activity [26]: 96.1%
- MIC50 [27]: 64 µg/mL
- MIC90 [27]: > 128 µg/mL
- MIC50 [28]: 16 µg/mL
- MIC90 [28]: 64 µg/mL
- Activity [29]: 82.7%
- MIC50 [30]: 16 µg/mL
- MIC90 [30]: > 128 µg/mL
- Activity [31]: 67.3%
- Activity [32]: 3.9%
- MIC50 [33]: > 128 µg/mL
- MIC90 [33]: > 128 µg/mL
- MIC50 [34]: 4 µg/mL
- MIC90 [34]: 8 µg/mL
- Activity [35]: 93.3%
- MIC50 [36]: 16 µg/mL
- MIC90 [36]: > 128 µg/mL
- MIC50 [37]: > 128 µg/mL
- MIC90 [37]: > 128 µg/mL
- MIC50 [38]: 4 µg/mL
- MIC90 [38]: 8 µg/mL
- Activity [39]: 18.1%
- Activity [40]: 5.8%
- MIC50 [41]: 128 µg/mL
- MIC90 [41]: > 128 µg/mL
- MIC50 [42]: > 128 µg/mL
- MIC90 [42]: > 128 µg/mL
- MIC50 [43]: 128 µg/mL
- MIC90 [43]: > 128 µg/mL
- Activity [44]: 4.4%
- Activity [45]: 15.6%
- Activity [46]: 20.6%
- Activity [47]: 20%
- Activity [48]: 93.6%
- Activity [49]: 27.1%
- Activity [50]: 96.3%
